Patent publication US20060222707A1 (priority 2005, published 2006)

Assay: Small volume in vitro release test in 50 ml 0.1N HCl
Assay type: physicochemical
Conditions: 37° C., 150 rpm
Protocol: The formulations were tested for their small volume in vitro release characteristics in 50 ml 0.1N HCl at 37° C. and 150 rpm using the following procedure: III. Instrumentation (or Equivalent) a. Automated Dissolution System comprising: Hanson SR8 Plus Test Station Hanson Auto Plus Maximiser System Controller Hanson Auto Plus MultiFill Fraction Collector b. HPLC System comprising: pump—Merck Hitachi L-7100 autoinjector—Merck Hitachi L-7200 column oven—Merck Hitachi L-7300 detector—Merck Hitachi L-7400 interface and integration software—Merck Hitachi D-7000
0.1N HCl Preparation Dilute 8.5 ml HCl 37% to 1 liter with purified water. Procedure Place one weighed capsule in each vessel containing 0.1N HCl and immediately operate the apparatus for 30 min. Unless otherwise specified, 3 ml samples are withdrawn from each vessel and immediately filtered through PTFE membranes at 15 and 30 min.
The small volume was chosen as a model of the conditions in a fasted stomach.

dissolution under small volume conditions (in words): no dissolution at all
Structure (SMILES): CC(C)OC(=O)C(C)(C)Oc1ccc(C(=O)c2ccc(Cl)cc2)cc1 [Micronized Fenofibrate]
